Results taken from patent EP4678638A1, “NEW E3 UBIQUITIN LIGASE LIGAND, PROTEIN DEGRADATION AGENT AND USE THEREOF” (priority 2023, dated 2024).
Read-outs that look alike come from different tables or passages of the source.

Assays:
[1] = system: Jurkat; experiment: CCK-8 proliferation, Jurkat; type: cell-based, Human; details: Table B10, compounds designed based on the IRAK4 inhibitors, Jurkat cells, read-out: Inhibitory activity (IC50, nM) on tumor cell proliferation, Jurkat
In short: (§1)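 Tumor cells were cultured at 37°C with 5% CO2, seeded, and after 24h treated with compounds at 10 concentrations starting at 10µM (5-fold serial dilutions).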

[2] = system: LNcap; experiment: CCK-8 proliferation, LNcap; type: cell-based; details: Homo sapiens
Method: (§2) The tumor cells used herein were cultured in a cell culture medium listed in table A1 at 37°C in an incubator with 5% CO2. Prior to experimentation, all cell lines used were correctly identified by STR profiling, and tested negative for mycoplasma contamination using a mycoplasma detection kit through routine screenings. Table A1. Tumor cells and cell culture medium used in the present disclosure
(§3) IC50 values of the compounds of the present disclosure (including the compounds in Table 1, and compounds of examples) were measured using the Meilun Cell Counting Kit-8 kit from Dalian Meilun Biotech Co., Ltd. Assay details are as follows: tumor cells were seeded in a 96-well plate at a density listed in Table A2. After 24h, 100 µL of the inoculated cells were treated with 0.5µL of the compounds of the present disclosure (including the compounds in Tables 1 and 2, and compounds of examples) at 10 different successively decreasing concentrations (starting at the highest concentration of 10µM; 5-fold serial dilutions). After the cells were treated with the compounds of the present disclosure for a period of time, the cell viability detection reagent was added to the culture medium for cell viability assessment according to the instructions provided with the CCK-8 kit. […] The growth inhibition of the compounds of the present disclosure on cells was plotted by Prism Graphpad software, and the IC50 values of the compounds of the present disclosure were calculated therefrom. […] Seeding protocol and treatment time for tumor cells

[3] = system: CCRF-CEM; experiment: CCK-8 proliferation, CCRF-CEM; type: cell-based, Human; details: Homo sapiens; Table B10, compounds designed based on the IRAK4 inhibitors; CCRF-CEM cells; read-out: Inhibitory activity (IC50, nM) on tumor cell proliferation, CCRF-CEM
In short: as §1

[4] = system: SR; experiment: CCK-8 proliferation, SR; type: cell-based, Human; details: Table B10, compounds designed based on the IRAK4 inhibitors, SR cells, read-out: Inhibitory activity (IC50, nM) on tumor cell proliferation, SR
In short: as §1

[5] = system: MV-4-11; experiment: CCK-8 proliferation, MV-4-11; type: cell-based, Human; details: Homo sapiens, MV4-11; Table B10, compounds designed based on the IRAK4 inhibitors; MV-4-11 cells; read-out: Inhibitory activity (IC50, nM) on tumor cell proliferation, MV-4-11
In short: as §1

[6] = system: H1299; experiment: CCK-8 proliferation, H1299; parameters: species or system Human; details: Table B10, compounds designed based on the IRAK4 inhibitors, H1299 cells, read-out: Inhibitory activity (IC50, nM) on tumor cell proliferation, H1299
Method: as §2, §3

[7] = system: MGC-803; experiment: CCK-8 proliferation, MGC-803 (heads: MGC80-3, MGC803); type: cell-based, Human; details: Table B10, compounds designed based on the IRAK4 inhibitors, MGC803 cells, read-out: Inhibitory activity (IC50, nM) on tumor cell proliferation, MGC803
Method: as §2, §3

[8] = system: MM.1S; experiment: CCK-8 proliferation, MM.1S; type: cell-based; details: Table B10, compounds designed based on the IRAK4 inhibitors, MM.1S cells, read-out: Inhibitory activity (IC50, nM) on tumor cell proliferation, MM.1S
In short: as §1

[9] = target: T1, IRAK4 (Homo sapiens, UniProt Q9NWZ3); experiment: Western blot degradation of IRAK4 (hPBMC); type: cell-based; details: Table D1
T1 construct: evaluate the effects of the compounds of the present disclosure on the expression of target proteins in cells; endogenous in cells; host or cells: hPBMC
T1 sequence (Q9NWZ3 1-460): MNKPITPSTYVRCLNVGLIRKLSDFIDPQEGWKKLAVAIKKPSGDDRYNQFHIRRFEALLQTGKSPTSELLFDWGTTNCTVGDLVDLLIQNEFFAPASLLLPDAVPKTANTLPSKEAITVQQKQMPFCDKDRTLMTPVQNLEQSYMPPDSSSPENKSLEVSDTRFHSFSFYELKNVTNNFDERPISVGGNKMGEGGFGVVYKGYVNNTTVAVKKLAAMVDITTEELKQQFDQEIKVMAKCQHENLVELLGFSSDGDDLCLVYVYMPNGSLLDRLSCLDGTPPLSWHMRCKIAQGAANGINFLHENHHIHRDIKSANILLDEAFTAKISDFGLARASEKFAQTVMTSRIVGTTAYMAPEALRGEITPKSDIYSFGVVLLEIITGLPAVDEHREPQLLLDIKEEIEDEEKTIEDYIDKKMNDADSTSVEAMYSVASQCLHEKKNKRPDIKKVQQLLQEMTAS
In short: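 After compound exposure, cells were harvested and lysates run on SDS-PAGE, transferred to nitrocellulose and probed with antibodies. Remaining target (%) was computed from band grayscale relative to an internal control protein and normalised; degradation (%) was 100% minus that.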

[10] = system: SW620; experiment: CCK-8 proliferation, SW620; type: cell-based; details: Homo sapiens, SW-620; CCK-8; 96 hours; read-out: Inhibitory activity (IC50) on tumor cell proliferation, SW620
In short: as §1

[11] = system: DU-145; experiment: CCK-8 proliferation, DU-145; type: cell-based; details: Homo sapiens, 96 hours, read-out: Inhibitory activity (IC50) on tumor cell proliferation, DU-145
Method: as §2, §3

[12] = Table B10, compounds designed based on the IRAK4 inhibitors, Lncap cells, read-out: Inhibitory activity (IC50, nM) on tumor cell proliferation, Lncap

Compound: CC(C)Nc1cc(-n2ccc3cc(C#N)cnc32)ncc1C(=O)NC1CCN(Cc2ccc(C3CCC(=O)NC3=O)c(F)c2)CC1 (centres unmarked) [GT-04043, 6-(5-cyano-1H-pyrrolo[2,3-b]pyridin-1-yl)-N-(1-(4-(2,6-dioxopiperidin-3-yl)-3-fluorobenzyl)piperidin-4-yl)-4-(isopropylamino)nicotinamide]
- IC50 ([1]; Homo sapiens): 100 to 500 nM
- IC50 [2, 12]: 500 to 1000 nM
- IC50 [3]: 500 to 1000 nM
- IC50 ([4]; Homo sapiens): 500 to 1000 nM
- IC50 [5]: 500 to 1000 nM

Compound: O=C1CCN(c2ccc(CN3CCN(c4ccc5c(c4)nc(NC(=O)c4cccc(C(F)(F)F)c4)n5[C@H]4CC[C@@H](CO)CC4)CC3)cc2)C(=O)N1 [GT-04982, N-(5-(4-(4-(2,4-dioxotetrahydropyrimidin-1(2H)-yl)benzyl)piperazin-1-yl)-1-((1s,4s)-4-(hydroxymethyl)cyclohexyl) -1H-benzo[d]imidazol-2-yl)-3-(trifluoromethyl)benzamide]
- IC50 ([6]; Homo sapiens, NCI-H1299): 100 to 500 nM
- IC50 ([7]; Homo sapiens, MGC-803): 100 to 500 nM
- IC50 ([8]; Homo sapiens, MM1.S): 50 to 100 nM
- Degradation of substrate protein IRAK4 (substrate protein remaining %) [9]: A (A is defined as 0% ≤ substrate protein remaining % ≤ 80%)
- IC50 ([1]; Homo sapiens): 100 to 500 nM
- IC50 ([4]; Homo sapiens): 100 to 500 nM

Compound: O=C1CCC(c2ccc(CN3CCC(n4cc(NC(=O)c5coc(-c6ccnc(NCC7CC7)c6)n5)c(C(F)F)n4)CC3)cc2)C(=O)N1 (centres unmarked) [GT-04175, 2-(2-((cyclopropylmethyl)amino)pyridin-4-yl)-N-(3-(difluoromethyl)-1-(1-(4-(2,6-dioxopiperidin-3-yl)benzyl)piperidin-4-yl)-1H-pyrazol-4-yl)oxazole-4-carboxamide]
- Degradation of substrate protein IRAK4 (substrate protein remaining %) [9]: A (A is defined as 0% ≤ substrate protein remaining % ≤ 80%)
- IC50 ([1]; Homo sapiens): 100 to 500 nM
- IC50 [2, 12]: 100 to 500 nM
- IC50 [3]: 500 to 1000 nM
- IC50 [5]: 500 to 1000 nM

Compound: O=C1CCC(c2ccc(CN3CCN(c4ccc(-n5cc(NC(=O)c6coc(-c7ccnc(NCC(F)(F)F)c7)n6)c(C(F)F)n5)cc4)CC3)cc2F)C(=O)N1 (centres unmarked) [GT-04274, N-(3-(difluoromethyl)-1-(4-(4-(4-(2,6-dioxopiperidin-3-yl)-3-fluorobenzyl)piperazin-1-yl)phenyl)-1H-pyrazol-4-yl)-2-(2-((2,2,2-trifluoroethyl)amino)pyridin-4-yl)oxazole-4-carboxamide]
- IC50 ([8]; Homo sapiens, MM1.S): 100 to 500 nM
- Degradation of substrate protein IRAK4 (substrate protein remaining %) [9]: A (A is defined as 0% ≤ substrate protein remaining % ≤ 80%)
- IC50 ([1]; Homo sapiens): 500 to 1000 nM
- IC50 [2, 12]: 100 to 500 nM
- IC50 [3]: 500 to 1000 nM

Compound: O=C1CCN(c2ccc(CN3CCC(n4cc(NC(=O)c5coc(-c6ccnc(NCC7CC7)c6)n5)c(C(F)F)n4)CC3)cn2)C(=O)N1 [GT-04959, 2-(2-((cyclopropylmethyl)amino)pyridin-4-yl)-N-(3-(difluoromethyl)-1-(1-((6-(2,4-dioxotetrahydropyrimidin-1(2H)-yl)pyridin-3-yl)methyl)piperidin-4-yl)-1H-pyrazol-4-yl)oxazole-4-carboxamide]
- IC50 ([6]; Homo sapiens, NCI-H1299): 500 to 1000 nM
- IC50 ([8]; Homo sapiens, MM1.S): 500 to 1000 nM

Compound: CN(Cc1ccc(C2CCC(=O)NC2=O)c(F)c1)C1CCN(c2ncc(C(=O)Nc3ccc(OC(F)(F)Cl)cc3)cc2-c2cc[nH]n2)CC1 (centres unmarked) [GT-04027, N-(4-(chlorodifluoromethoxy)phenyl)-6-(4-((4-(2,6-dioxopiperidin-3-yl)-3-fluorobenzyl)(methyl)amino)piperidin-1-yl)-5-(1H-pyrazol-3-yl)nicotinamide]
- IC50 ([2]; LNCaP, CCK-8, 96 hours, read-out: Inhibitory activity (IC50) on tumor cell proliferation, Lncap): 100 to 500 nM
- IC50 [10]: 100 to 500 nM

Compound: O=C1CCN(c2ccc(COc3ccc(Cl)cc3-c3nc4cc(C(F)(F)F)cc(Cl)c4[nH]3)cn2)C(=O)N1 [GT-06481, 1-(5-((4-chloro-2-(7-chloro-5-(trifluoromethyl)-1H-benzo[d]imidazol-2-yl)phenoxy)methyl)pyridin-2-yl)dihydropyrimidine-2,4(1H,3H)-dione]
- IC50 [11]: 50 to 100 nM

Compound: O=C1CCN(c2ccc(COc3ccc(Cl)cc3-c3nc4cc(C(F)(F)F)cc(Cl)c4[nH]3)cc2)C(=O)N1 [GT-06479, 1-(4-((4-chloro-2-(7-chloro-5-(trifluoromethyl)-1H-benzo[d]imidazol-2-yl)phenoxy)methyl)phenyl)dihydropyrimidine-2,4(1H,3H)-dione]
- IC50 [11]: 100 to 500 nM

Compound: O=C1CCN(c2cccc(COc3ccc(Cl)cc3-c3nc4cc(C(F)(F)F)cc(Cl)c4[nH]3)c2)C(=O)N1 [GT-06480, 1-(3-((4-chloro-2-(7-chloro-5-(trifluoromethyl)-1H-benzo[d]imidazol-2-yl)phenoxy)methyl)phenyl)dihydropyrimidine-2,4(1H,3H)-dione]
- IC50 [11]: 100 to 500 nM

Compound: CC(C)Nc1cc(-n2ccc3cc(C#N)cnc32)ncc1C(=O)NC1CCN(Cc2ccc(C3CCC(=O)NC3=O)cc2)CC1 (centres unmarked) [GT-04042, 6-(5-cyano-1H-pyrrolo[2,3-b]pyridin-1-yl)-N-(1-(4-(2,6-dioxopiperidin-3-yl)benzyl)piperidin-4-yl)-4-(isopropylamino)nicotinamide]
- IC50 ([1]; Homo sapiens): 500 to 1000 nM
- IC50 [2, 12]: 500 to 1000 nM
- IC50 [3]: 500 to 1000 nM
- IC50 ([4]; Homo sapiens): 500 to 1000 nM
- IC50 [5]: 500 to 1000 nM

Compound: O=C1CCN(c2ccc(CN3CCN(c4ccc5c(c4)nc(NC(=O)c4cccc(C(F)(F)F)c4)n5[C@H]4CC[C@@H](CO)CC4)CC3)cn2)C(=O)N1 [GT-04987, N-(5-(4-((6-(2,4-dioxotetrahydropyrimidin-1(2H)-yl)pyridin-3-yl)methyl)piperazin-1-yl)-1-((1s,4s)-4-(hydroxymethyl)cyclohexyl) -1H-benzo[d]imidazol-2-yl)-3-(trifluoromethyl)benzamide]
- IC50 [6]: 100 to 500 nM
- IC50 [7]: 100 to 500 nM
- IC50 [8]: 100 to 500 nM
- IC50 [1]: 100 to 500 nM
- IC50 [4]: 100 to 500 nM
